Where a name gives a salt, the structure may show the parent alone.
Assays:
[1] = Apparent binding constant by UV-vis spectroscopy, Scott's plot, ligand β-CD; type: physicochemical; settings: aqueous solution; absorption at 355 nm; Scott's equation, 1:1 stoichiometry; OxyCl 0.068 mM, ligand 0.068 to 10 mM
Procedure: (§1) UV-vis data were used to calculate the association or binding constants (Ka) of OxyCl polymorphs with each ligand in an aqueous solution by different treatment analyses. The concentration of OxyCl was kept constant (0.068 mM), while the concentration of ligands increased from 0.068 to 10 mM.
(§2) Ka values were determined by applying the formula of Benesi–Hildebrandt, adjusted by Scott utilized for a complex of 1:1 stoichiometry:(1) [L]/ΔAobs=[L]/ΔAc+1/Ka×ΔAc where [L] is the molar concentration of the ligand, ∆Aobs is the variation in the absorbance observed for the OxyCl solid form for a given [L], ΔAc is the variation in the absorbance between the complex and the free solid form.
(§3) The association constant (Ka) for the formation of binary systems was estimated from changes in the intensity of the absorption at 355 nm with increasing ligand concentration using double reciprocal plots of Scott´s equation. […] However, deviations in straight lines were detected for the binary systems with NAC, which determined it was impossible to calculate an association constant assuming this model. To determine the Ka for OxyCl:NAC systems, a model matrix that applied least-squares techniques for the linear transformation of the data was used.

[2] = Apparent binding constant by UV-vis spectroscopy, Scott's plot, ligand ASP; type: physicochemical; settings: aqueous solution; absorption at 355 nm; Scott's equation, 1:1 stoichiometry; OxyCl 0.068 mM, ligand 0.068 to 10 mM
Procedure: as §1, §2, §3

[3] = Chemical stability (degradation kinetics) in PBS by HPLC; type: physicochemical; settings: 25.0 ± 0.1 °C; for k0, intrinsic rate constant of degradation of the free polymorph: PBS (pH 7.4), light protection, 30 µg/mL
Procedure: (§4) The kinetics of degradation of OxyCl polymorphs both in the presence and absence of ligands were investigated in the aqueous solutions and PBS.
(§5) Stock solutions of each solid form, as well as each ligand β-CD, ASP, and NAC, were prepared. These stock solutions were diluted to a final concentration of 30 µg/mL in water and PBS solutions to prepare the test solutions. The solutions containing ligands were prepared in the molar ratio of 1:1. These solutions were stored with light protection in order to diminish any photolytic effects in a water bath at a constant temperature of 25.0 ± 0.1 °C. Samples were withdrawn at appropriate time intervals and immediately analyzed by HPLC. The observed pseudo first-order rate constants (kobs) for the OxyCl polymorphs degradation were obtained from a linear regression analysis of the natural logarithm of the remaining solid forms plotted against time.
(§6) An HPLC-UV procedure under isocratic conditions was optimized. The results were expressed as the mean of the three determinations of samples prepared in duplicate. The HPLC system was an Agilent 1100 (Agilent Technologies, Waldbronn, Germany) equipped with a column Gemini C18 250 mm × 4.6 mm i.d. filled with 5 μm particles and a precolumn (guard cartridge SecurityGuard C18 4 mm × 3.0 mm i.d.) supplied by Phenomenex (Phenomenex Inc., Torrance, CA, USA). To avoid interference from degradation products, the UV detection was performed at a wavelength of 355 nm. The mobile phase was acetonitrile-water adjusted to a pH of 3 with phosphoric acid (20:80, v/v), and a flow rate of 1 mL/min was used. The column temperature was 25 °C and the injection volume was 50 µL.
(§7) Furthermore, linear regression analysis was used to estimate the intrinsic rate constant of degradation of the free OxyCl polymorphs (k0), the observed rate constant of OxyCl polymorphs in the presence of ligands (kobs), the half-life (t50), and the time of 10% degradation of the drug (t90).
The degradation plots were linear, indicating apparent first-order kinetics. […] It was observed that OxyCl-I degraded at a faster rate than OxyCl-II and OxyCl-III, with a degradation rate of OxyCl-II < OxyCl-III < OxyCl-I.

[4] = Chemical stability (degradation kinetics) in aqueous solution by HPLC; type: physicochemical; settings: 25.0 ± 0.1 °C; for k0, intrinsic rate constant of degradation of the free polymorph: light protection, 30 µg/mL
Procedure: as §4, §5, §6
It is important to mention that the results presented in these studies represent the first report about OxyCl polymorphs stability. The degradation curves of each OxyCl polymorph and its binary systems with β-CD, NAC, and ASP in an aqueous solution, under identical experimental conditions, were compared. […] The kinetic parameters, which are important in the pharmaceutical sector, were determined using a first-order reaction model that could be expressed by the following equation:ln Ct = […] − k t(8) where Ct and C0 were the concentrations of OxyCl at different reaction times and at the initial time, respectively, k was the degradation rate constant, and t was time. As a result, the slope of the fitted lines could be used to determine k.
as §7

[5] = Apparent binding constant by UV-vis spectroscopy, Scott's plot, ligand HIS; type: physicochemical; settings: aqueous solution; absorption at 355 nm; Scott's equation, 1:1 stoichiometry; OxyCl 0.068 mM, ligand 0.068 to 10 mM
Procedure: as §1, §2, §3

[6] = Apparent binding constant by UV-vis spectroscopy, least-squares model matrix, ligand NAC; type: physicochemical; settings: aqueous solution; absorption at 355 nm; model matrix with least-squares linear transformation; OxyCl 0.068 mM, ligand 0.068 to 10 mM
Procedure: as §1
Another model for measuring binding constants in data analysis utilizes least-squares analysis. The general approach is to use the linear regression method with a model matrix to find the binding association constant and then apply least-squares procedures to a linear transformation. The normal equations can be written in matrix form as:(2) M×P=Q where (3) M=[n∑x∑x∑x^2] (4) P=[a/b] (5) Q=[∑y/∑xy] then:(6) Ka=a/b
as §3

[7] = set-up: method as in doi:10.1016/j.molliq.2017.12.006; settings: incorporated into β-CD cavity; hydrolytic degradation; cited from earlier work

SMILES	Apparent binding constants Ka, ligand β-CD [1]	Apparent binding constants Ka, ligand ASP [2]	k0, intrinsic rate constant of degradation of the free polymorph [3] [h⁻¹]	t90, time of 10% degradation of the drug ([3]; PBS) [h]	half-life at 30 µg/mL ([3]; PBS, pH 7.4, PBS, read-out: t50, half-life (converted)) [h]	t50, half-life [4] [h]	t90, time of 10% degradation of the drug [4] [h]	k0, intrinsic rate constant of degradation of the free polymorph [4] [h⁻¹]	Apparent binding constants Ka, ligand HIS [5] [M⁻¹]	Apparent binding constants Ka, ligand NAC [6] [M⁻¹]	t50, half-life ([3]; PBS) [h]	half-life at 30 µg/mL ([4]; pH 4, aqueous solution, read-out: t50, half-life (converted)) [h]	increase of half-life in aqueous solutions by β-CD [7] [fold]
CN(C)[C@@H]1C(O)=C(C(N)=O)C(=O)[C@@]2(O)C(O)=C3C(=O)c4c(O)cccc4[C@@](C)(O)[C@H]3[C@H](O)[C@@H]12 [OxyCl-I, Oxytetracycline hydrochloride]	3761 M⁻¹	34,645 M^−1	0.009	12	81	68	10	0.0102	224	2042			
CN(C)[C@@H]1C(O)=C(C(N)=O)C(=O)[C@@]2(O)C(O)=C3C(=O)c4c(O)cccc4[C@@](C)(O)[C@H]3[C@H](O)[C@@H]12 [OxyCl-II, Oxytetracycline hydrochloride]	15,425 M^−1	3063 M⁻¹	0.005	21		57	9	0.0121	323	4582	139		
CN(C)[C@@H]1C(O)=C(C(N)=O)C(=O)[C@@]2(O)C(O)=C3C(=O)c4c(O)cccc4[C@@](C)(O)[C@H]3[C@H](O)[C@@H]12 [OxyCl-III, Oxytetracycline hydrochloride]	3607 M⁻¹	1771 M⁻¹	0.007	15			9	0.0116	8247	3897	102	60	
NS(=O)(=O)c1cc2c(cc1Cl)NCNS2(=O)=O [hydrochlorothiazide]													~28
